Here are results for 17 molecules from patent US8008299B2, “Urotensin II receptor antagonists” (Janssen Pharmaceutica, N.V., priority 2007, dated 2011).

The structures appear in SMILES notation. Read-outs that look alike come from different tables or passages of the source.

For experiment [1], the target named is T1, UT receptors in HSMM (Human Skeletal Muscle Myoblasts) (Homo sapiens, UniProt Q9UKP6).
T1 sequence (Q9UKP6 1-389): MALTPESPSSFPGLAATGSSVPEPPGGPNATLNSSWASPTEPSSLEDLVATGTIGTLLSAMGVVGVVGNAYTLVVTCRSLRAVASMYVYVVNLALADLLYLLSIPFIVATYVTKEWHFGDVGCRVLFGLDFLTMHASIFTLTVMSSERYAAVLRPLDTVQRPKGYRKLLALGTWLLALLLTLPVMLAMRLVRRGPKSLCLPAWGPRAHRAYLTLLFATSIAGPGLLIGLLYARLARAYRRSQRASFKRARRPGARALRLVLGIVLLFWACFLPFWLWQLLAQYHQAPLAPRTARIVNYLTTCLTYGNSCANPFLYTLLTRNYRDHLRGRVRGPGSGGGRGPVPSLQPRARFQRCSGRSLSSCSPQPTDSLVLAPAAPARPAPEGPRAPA
Nature of the experiment: Human Radioligand Binding Assay ((^125I)-U-II binding to intact HSMM).

In experiment [2] the target is T2, Human UII (U-II receptor) in 6D9 human rhabdomyosarcoma cells (Homo sapiens, UniProt Q9UKP6).
T2 construct: 6D9: isolated by dilution subcloning of RMS13 cells, ATCC® Number: CRL-2061; host or cells: 6D9 human rhabdomyosarcoma cells (subclone of RMS13)
T2 sequence (Q9UKP6 1-389): T1 sequence (Q9UKP6 1-389)
Nature of the experiment: Human UII Calcium Mobilization Assay. In kind it is cell-based. Here is the method: 25 μL of dye solution was added to the wells such that the final liquid volume before agonist/antagonist treatment was 50 μL for all assays. The cell plates were incubated at 37° C. for 45 minutes and the fluorescence intensity was measured on a Fluorometric Imaging Plate Reader (FLIPR^TETRA, Molecular Devices, Sunnyvale, Calif.).
Antagonist and agonist U-II were added at room temperature on the FLIPR^TETRA, and the fluorescence intensity before and after addition was measured over a period of 4 minutes. The dye incubation time and temperature as well as instrument setting was adjusted so the fluorescence intensity could be compared between plates on the same day. EC50 and IC50 were analyzed using GraphPad Prism 4 software (GraphPad Software Inc., San Diego, Calif.).
For assays, U-II agonist, U-II antagonist and urantide were diluted with HBSS/HEPES containing 0.01% FBS.
Test compounds were dissolved in DMSO at 10 mM concentration. The serial dilutions were carried out in HBSS/HEPES. The highest final DMSO concentration was at 0.1%.

In experiment [3] the target is T3, rat GPR14 (U-II receptor) (Rattus norvegicus, UniProt P49684).
T3 construct: expressed in transfected cells
T3 sequence (P49684 1-386): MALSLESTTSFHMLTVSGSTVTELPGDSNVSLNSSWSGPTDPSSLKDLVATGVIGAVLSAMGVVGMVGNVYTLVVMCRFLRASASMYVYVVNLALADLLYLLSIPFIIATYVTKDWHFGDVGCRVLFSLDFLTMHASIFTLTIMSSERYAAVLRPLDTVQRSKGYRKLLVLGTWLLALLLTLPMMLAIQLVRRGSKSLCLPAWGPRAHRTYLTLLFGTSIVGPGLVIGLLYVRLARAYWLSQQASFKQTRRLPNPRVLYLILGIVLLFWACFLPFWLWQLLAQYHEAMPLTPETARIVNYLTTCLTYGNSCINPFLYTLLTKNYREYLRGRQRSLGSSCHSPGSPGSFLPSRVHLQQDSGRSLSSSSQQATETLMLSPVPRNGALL
Nature of the experiment: Rat UII Calcium Mobilization FLIPR Assay. In kind it is cell-based. To be noted: CHO cells transfected with rat GPR14; antagonist activity after 5 min incubation vs agonist (Ac)-CFWK(2-NaI)C-NH2 at 1 nM. The source says: To derive these cells, the complete coding sequence of rat U-II (Genbank Accession No. U32673) was amplified by nested PCR from rat heart marathon-Ready cDNA. […] The PCR products were cloned into pcDNA3 (Invitrogen) digested with EcoR I and Xba I. Clones containing rat U-II receptor were verified by complete sequencing of the U-II receptor insert to ensure a lack of PCR-introduced errors. The constructed vector was transfected into CHO cells by using lipofectamine (GIBCO BRL). CHO cells with high expression of rat U-II receptor were selected and established as stable cell lines by using G418. CHO cells were seeded at 25,000 cells per well into 96-well, black-wall, clear-bottom microtiter plates 24 h before assay. Cells in culture media (DMEM/F12 containing 15 mM HEPES, L-glutamine, pyridoxine hydrochloride; 10% fetal bovine serum; 1 mg/mL G418 sulfate; antibiotic-antimycotic; pH 7.4) were loaded with proprietary dye, from the FLIPR Calcium Assay Kit (Molecular Devices), prepared in assay buffer (Hanks Balanced Salts Solution, 20 mM HEPES, 0.1% BSA, 2.5 mM probenecid, pH 7.4), and incubated for 1 h at 37° C. Calcium mobilization determinations were performed at room temperature (23° C.).
For orientation: A change in cytosolic calcium serves as a functional read-out for many receptors and channels.

Where [4] appears, read: 6D9 human rhabdomyosarcoma cells, FLIPR TETRA, average, read-out: Human UII Ca+ Mobilization Average IC50.

Broadly, the Ki is a dissociation constant, usually derived from enzyme kinetics or from competition with a known ligand. The term IC50 denotes the concentration that gives 50% inhibition.

Turning to `COc1ccc([C@@H](CCCNc2nccc(C(F)(F)F)n2)N2Cc3c(cccc3N3CCN(Cc4ccccc4)CC3)C2=O)cc1OC` [Cpd 5, 4-(4-benzyl-piperazin-1-yl)-2-[(1R)-1-(3,4-dimethoxy-phenyl)-4-(4-trifluoromethyl-pyrimidin-2-ylamino)-butyl]-2,3-dihydro-isoindol-1-one], the Ki in experiment [1] is 45 nM. The IC50 in experiment [2] (setting [4]) was 857 nM; in experiment [3], 16 nM.
Taken in the same sequence, the figures for `CCN1CCN(c2cccc3c2CN([C@H](CCCNC(=O)C(F)(F)F)c2ccc(OC)c(OC)c2)C3=O)CC1` [Cpd 67, N-{(4R)-4-(3,4-dimethoxy-phenyl)-4-[4-(4-ethyl-piperazin-1-yl)-1-oxo-1,3-dihydro-isoindol-2-yl]-butyl}-2,2,2-trifluoro-acetamide] were 43 nM, 865 nM and 50 nM.
For `COc1ccc([C@@H](CCCN(C)S(=O)(=O)c2cccs2)N2Cc3c(cccc3N3CCN(C4CC4)CC3)C2=O)cc1OC` [Cpd 7, thiophene-2-sulfonic acid [(4R)-4-[4-(4-cyclopropyl-piperazin-1-yl)-1-oxo-1,3-dihydro-isoindol-2-yl]-4-(3,4-dimethoxy-phenyl)-butyl]-methyl-amide], the Ki in experiment [1] (read-out: Human UII Average Binding Ki, intact HSMM, 0.150 nM (^125I)-U-II, 3 h, 25° C.) was found to be 59 nM. Also, the figures for the IC50 in experiment [2] and in experiment [3] were 1170 nM and 13 nM, respectively.
On to `CCN1CCN(c2cccc3c2CN([C@H](CCCN(C)Cc2ccccc2F)c2ccc(OC)c(OC)c2)C3=O)CC1` [Cpd 97, 2-{(1R)-1-(3,4-dimethoxy-phenyl)-4-[(2-fluoro-benzyl)-methyl-amino]-butyl}-4-(4-ethyl-piperazin-1-yl)-2,3-dihydro-isoindol-1-one], for which the affinity in experiment [1], expressed as Ki, was 26 nM. The IC50 in experiment [2] (setting [4]) was 56 nM; in experiment [3], 4 nM.
For `CCN1CCN(c2cccc3c2CN(C(CC2CCN(S(=O)(=O)O)CC2)c2ccc(OC)c(OC)c2)C3=O)CC1` (stereo not drawn) [Cpd 17, 4-{2-(3,4-dimethoxy-phenyl)-2-[4-(4-ethyl-piperazin-1-yl)-1-oxo-1,3-dihydro-isoindol-2-yl]-ethyl}-piperidine-1-sulfonic acid] the same measures were 74 nM, 662 nM and 337 nM.
`CCN1CCN(c2cccc3c2CN([C@H](CCCNC(=O)c2ccnnc2)c2ccc(OC)c(OC)c2)C3=O)CC1` [Cpd 61, pyridazine-4-carboxylic acid {(4R)-4-(3,4-dimethoxy-phenyl)-4-[4-(4-ethyl-piperazin-1-yl)-1-oxo-1,3-dihydro-isoindol-2-yl]-butyl}-amide] gave a Ki in experiment [1] of 29 nM. In addition, the IC50 was determined as 858 nM in experiment [2] (setting [4]) and 69 nM in experiment [3].
`CCN1CCN(c2cccc3c2CN([C@H](CCCc2ccccc2)c2ccc(OC)c(OC)c2)C3=O)CC1` [Cpd 87, 2-[(1R)-1-(3,4-dimethoxy-phenyl)-4-phenyl-butyl]-4-(4-ethyl-piperazin-1-yl)-2,3-dihydro-isoindol-1-one]: affinity in experiment [1] was put at a Ki of 37 nM. Moreover, the IC50 in experiment [3] was determined as 6 nM.
On to `CCN1CCN(c2cccc3c2CN([C@H](CCCNS(=O)(=O)O)c2ccc(OC)c(OC)c2)C3=O)CC1` [Cpd 71, {(4R)-4-(3,4-dimethoxy-phenyl)-4-[4-(4-ethyl-piperazin-1-yl)-1-oxo-1,3-dihydro-isoindol-2-yl]-butyl}-sulfamic acid], for which the Ki in experiment [1] was greater than 300 nM. Besides, the IC50 in experiment [2] (setting [4]) turned out to be 1790 nM; in experiment [3], 457 nM.
In the case of `CCN1CCN(c2cccc3c2CN([C@H](CCCNc2ncccn2)c2ccc(OC)c(OC)c2)C3=O)CC1` [Cpd 48, 2-[(1R)-1-(3,4-dimethoxy-phenyl)-4-(pyrimidin-2-ylamino)-butyl]-4-(4-ethyl-piperazin-1-yl)-2,3-dihydro-isoindol-1-one], the Ki in experiment [1] worked out at 48 nM. Moreover, the results for the IC50 in experiment [2] (setting [4]) and in experiment [3] were 496 nM and 61 nM, respectively.
`CCN1CCN(c2cccc3c2CN([C@H](CCCN(Cc2ccc(F)cc2)C(C)=O)c2ccc(OC)c(OC)c2)C3=O)CC1` [Cpd 88, N-{(4R)-4-(3,4-dimethoxy-phenyl)-4-[4-(4-ethyl-piperazin-1-yl)-1-oxo-1,3-dihydro-isoindol-2-yl]-butyl}-N-(4-fluoro-benzyl)-acetamide] had an inhibition constant Ki in experiment [1] of 10 nM. The IC50 in experiment [3] is 6 nM.
In the case of `COc1ccc([C@@H](CCCN(C)S(=O)(=O)c2cccs2)N2Cc3c(cccc3N3CCN(C)CC3)C2=O)cc1OC` [Cpd 26, thiophene-2-sulfonic acid {(4R)-4-(3,4-dimethoxy-phenyl)-4-[4-(4-methyl-piperazin-1-yl)-1-oxo-1,3-dihydro-isoindol-2-yl]-butyl}-methyl-amide], the IC50 in experiment [2] (setting [4]) came to 337 nM; in experiment [3], 16 nM.
In the case of `CCN1CCN(c2cccc3c2CN([C@H](CCCNc2ccc4ccccc4n2)c2ccc(OC)c(OC)c2)C3=O)CC1` [Cpd 89, 2-[(1R)-1-(3,4-dimethoxy-phenyl)-4-(quinolin-2-ylamino)-butyl]-4-(4-ethyl-piperazin-1-yl)-2,3-dihydro-isoindol-1-one], in experiment [1], the inhibition constant (Ki) was greater than 300 nM. For the same molecule, the IC50 in experiment [3] amounted to 260 nM.
`CCN1CCN(c2cccc3c2CN([C@H](CCCOCc2cccc(C)c2)c2ccc(OC)c(OC)c2)C3=O)CC1` [Cpd 55, 2-[(1R)-1-(3,4-dimethoxy-phenyl)-4-(3-methyl-benzyloxy)-butyl]-4-(4-ethyl-piperazin-1-yl)-2,3-dihydro-isoindol-1-one]: the values for the IC50 in experiment [2] (setting [4]) and in experiment [3] were greater than 10000 nM and 2150 nM, respectively.
Taken in the same sequence, the figures for `COc1ccc([C@@H](CCCSc2nnnn2C)N2Cc3c(cccc3N3CCNCC3)C2=O)cc1OC` [Cpd 24, 2-[(1R)-1-(3,4-dimethoxy-phenyl)-4-(1-methyl-1H-tetrazol-5-ylsulfanyl)-butyl]-4-piperazin-1-yl-2,3-dihydro-isoindol-1-one] were 1550 nM and 165 nM.
Take `CCN1CCN(c2cccc3c2CN([C@H](CCCOCc2cccc(F)c2)c2ccc(OC)c(OC)c2)C3=O)CC1` [Cpd 52, 2-[(1R)-1-(3,4-dimethoxy-phenyl)-4-(3-fluoro-benzyloxy)-butyl]-4-(4-ethyl-piperazin-1-yl)-2,3-dihydro-isoindol-1-one]: the IC50 in experiment [2] (setting [4]) is greater than 10000 nM; in experiment [3], 3130 nM.
`CCN1CCN(c2cccc3c2CN([C@H](CCc2ccc4c(n2)NCCC4)c2ccc(OC)c(OC)c2)C3=O)CC1` [Cpd 86, 2-[(1R)-1-(3,4-dimethoxy-phenyl)-3-(5,6,7,8-tetrahydro-[1,8]naphthyridin-2-yl)-propyl]-4-(4-ethyl-piperazin-1-yl)-2,3-dihydro-isoindol-1-one] returned a Ki in experiment [1] of 386 nM. In experiment [3], the IC50 is less than 1000 nM.
As to `CCN1CCN(c2cccc3c2CN([C@H](CCCN(C)S(=O)(=O)c2cccs2)c2ccc(OC)c(OC)c2)C3=O)CC1` [Cpd 62, thiophene-2-sulfonic acid {(4R)-4-(3,4-dimethoxy-phenyl)-4-[4-(4-ethyl-piperazin-1-yl)-1-oxo-1,3-dihydro-isoindol-2-yl]-butyl}-methyl-amide], the IC50 in experiment [2] (setting [4]) turned out to be 88 nM; in experiment [3] it was 7 nM.
